US20120077831A1, “METHODS AND ASSAYS FOR THE TREATMENT OF IRRITABLE BOWEL SYNDROME” (priority 2009, published 2012)

Columns and labels:
[1] = test system: patients suffering from IBS-D or IBS-A; assay: phase 2a clinical trial in IBS patients: weekly global assessment and Bristol Stool Scale; assay type: in vivo, human
Procedure: (§1) A randomized, double-blind, placebo-controlled phase 2a clinical trial was conducted to assess the safety and efficacy of a TPH inhibitor, (S)-2-amino-3-(4-(2-amino-6-((R)-2,2,2-trifluoro-1-(3′-methoxybiphenyl-4-yl)ethoxy)pyrimidin-4-yl)phenyl)propanoic acid, in 155 patients suffering from IBS-D or IBS-A, based on Rome III criteria. Capsules containing the compound or placebo were orally administered. Two dose levels were tested: 250 mg QID and 1000 mg QID. A two-week run-in period was used to establish baseline symptoms, followed by a 28 day randomized, double-blind treatment period. There was then a two-week follow-up period.
(§2) During the study, patients' urine and blood were obtained to assess 5-HIAA and 5-HT levels. Methods used to assess clinical endpoints were: 1) global assessment by weekly questioning regarding adequate relief of IBS pain and discomfort; and 2) Bristol Stool Scale was used to assess stool consistency by daily automated telephonic IVRS contact.

5-HIAA and 5-HT levels = assay: phase 2a clinical trial in IBS patients: blood 5-HT and 24 hour urinary 5-HIAA levels; assay type: in vivo, human; conditions: oral dosing
Procedure: as §1, §2

COc1cccc(-c2ccc([C@@H](Oc3cc(-c4ccc(C[C@H](N)C(=O)O)cc4)nc(N)n3)C(F)(F)F)cc2)c1 [(S)-2-amino-3-(4-(2-amino-6-((R)-2,2,2-trifluoro-1-(3′-methoxybiphenyl-4-yl)ethoxy)pyrimidin-4-yl)phenyl)propanoic acid] was tested, and the “improvement in global response in relation to baseline serotonin levels (5-HIAA in 24 hour urine prior to dosing)” value ([1]; IBS patients with comparatively high baseline levels versus those without) was “greater beneficial effect in IBS patients who had comparatively high baseline levels”, the “weekly global assessment (adequate relief of IBS pain and discomfort)” value ([1]; high dose arm (1000 mg QID, oral capsules) versus placebo, 28 day treatment period) was “statistically significant improvement versus placebo” and the “stool consistency (Bristol Stool Scale)” value ([1]; high dose arm (1000 mg QID, oral capsules), 28 day treatment period) was “significant improvement”. The “24 hour urinary 5-HIAA levels” value (5-HIAA and 5-HT levels) was “significant reduction” and the “blood 5-HT levels” value (5-HIAA and 5-HT levels) was “reduction”.
